Test results: patent US11034650B2, “Compounds useful for treating a Mannheimia haemolytica or Histophilus somni infection” (Intervet Inc., priority 2016, dated 2021)
≈ marks a conversion by molar mass, not a printed value.

Experiments:
Type in all cases: cell-based
[1] = tested on: Pasteurella multocida PM 10775 (080130003051, BRD field isolate); experiment: MIC, broth-microdilution (CLSI VET01-A4), strain PM 10775; conditions: Pasteurella multocida strain PM 10775, broth-microdilution; unit assumed
In short: (§1)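 Read-out is unaided visual inspection for turbidity. The minimum inhibitory concentration is the lowest tested level without detectable growth across a two-fold compound series.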

[2] = tested on: Mannheimia haemolytica MH 6357 (M7/2, reference strain, cattle infection strain); experiment: MIC, broth-microdilution (CLSI VET01-A4), strain MH 6357; conditions: Mannheimia haemolytica strain MH 6357, broth-microdilution; unit assumed
In short: as §1

[3] = tested on: Mannheimia haemolytica MH 6374 (ATCC 33396, reference strain); experiment: MIC, broth-microdilution (CLSI VET01-A4), strain MH 6374; conditions: Mannheimia haemolytica strain MH 6374, broth-microdilution; unit assumed
In short: as §1

[4] = tested on: Mannheimia haemolytica MH 13093 (XB0472-6014.1, BRD field isolate); experiment: MIC, broth-microdilution (CLSI VET01-A4), strain MH 13093; conditions: Mannheimia haemolytica strain MH 13093, broth-microdilution; unit assumed
In short: as §1

[5] = tested on: Mannheimia haemolytica MH 12587 (1071, BRD field isolate, macrolide-resistance: erm+, E+); experiment: MIC, broth-microdilution (CLSI VET01-A4), strain MH 12587; conditions: Mannheimia haemolytica strain MH 12587, broth-microdilution; unit assumed
In short: as §1

[6] = tested on: Mannheimia haemolytica MH 13065 (XB0446-6003.9, BRD field isolate); experiment: MIC, broth-microdilution (CLSI VET01-A4), strain MH 13065; conditions: Mannheimia haemolytica strain MH 13065, broth-microdilution; unit assumed
In short: as §1

[7] = tested on: Pasteurella multocida PM 12080 (IV102277-0093, BRD field isolate); experiment: MIC, broth-microdilution (CLSI VET01-A4), strain PM 12080; conditions: Pasteurella multocida strain PM 12080, broth-microdilution; unit assumed
In short: as §1

[8] = tested on: Pasteurella multocida PM 6391 (ATCC 43137, reference strain); experiment: MIC, broth-microdilution (CLSI VET01-A4), strain PM 6391; conditions: Pasteurella multocida strain PM 6391, broth-microdilution; unit assumed
In short: as §1

[9] = tested on: Mannheimia haemolytica MH 10720 (154, BRD field isolate); experiment: MIC, broth-microdilution (CLSI VET01-A4), strain MH 10720; conditions: Mannheimia haemolytica strain MH 10720, broth-microdilution; unit assumed
In short: as §1

[10] = tested on: Pasteurella multocida PM 6267 (P 2225 (L386), reference strain, mouse infection strain); experiment: MIC, broth-microdilution (CLSI VET01-A4), strain PM 6267; conditions: Pasteurella multocida strain PM 6267, broth-microdilution; unit assumed
In short: as §1

Row | Compound | MIC PM 10775 [1] [µg/mL] | MIC PM 12080 [7] [µg/mL] | MIC PM 6391 [8] [µg/mL] | MIC PM 6267 [10] [µg/mL] | MIC MH 6357 [2] [µg/mL] | MIC MH 6374 [3] [µg/mL] | MIC MH 13093 [4] [µg/mL] | MIC MH 12587 [5] [µg/mL] | MIC MH 13065 [6] [µg/mL] | MIC MH 10720 [9] [µg/mL]
1 | CC[C@H](C)[C@H](NC(=O)c1ccc(C#Cc2ccc(CN(C)CCOC)cc2)cc1)C(=O)NO [Compound 178] | ≤ 0.1 | 0.4 (≈ 0.886 µM) | 0.8 (≈ 1.77 µM) | 0.2 (≈ 0.443 µM) | 1.6 (≈ 3.54 µM) | 3.1 (≈ 6.86 µM) | 3.1 (≈ 6.86 µM) | 6.3 (≈ 14 µM) | 1.6 (≈ 3.54 µM) | 0.8 (≈ 1.77 µM)
2 | CC(C)(C)CNCc1ccc(C#Cc2ccc(C(=O)N[C@@H](CO)C(=O)NO)cc2)cc1 [Compound 136] | ≤ 0.1 | 0.8 (≈ 1.89 µM) | 0.8 (≈ 1.89 µM) | 0.4 (≈ 0.944 µM) | 3.1 (≈ 7.32 µM) | 12.5 (≈ 29.5 µM) | 25 (≈ 59 µM) | 25 (≈ 59 µM) | 12.5 (≈ 29.5 µM) | 1.6 (≈ 3.78 µM)
3 | CC(C)(O)[C@H](NC(=O)c1ccc(C#Cc2ccc(CNC3CC3)s2)cc1)C(=O)NO [Compound 290] | ≤ 0.1 | ≤ 0.1 | 0.2 (≈ 0.468 µM) | ≤ 0.1 | ≤ 0.1 | ≤ 0.1 | 0.2 (≈ 0.468 µM) | 0.4 (≈ 0.936 µM) | ≤ 0.1 | ≤ 0.1
4 | CC(C)([C@H](NC(=O)c1ccc(C#Cc2ccc(CNC3CC3)s2)cc1)C(=O)NO)S(C)(=O)=O [C.311] | ≤ 0.1 | ≤ 0.1 | ≤ 0.1 | 0.4 (≈ 0.817 µM) | 0.2 (≈ 0.408 µM) | ≤ 0.1 | 0.4 (≈ 0.817 µM) | 0.4 (≈ 0.817 µM) | ≤ 0.1 | ≤ 0.1
5 | CC(C)(O)[C@H](NC(=O)c1ccc(C#Cc2ccc(CN3CCOCC3)cc2)cc1)C(=O)NO [Compound 222] | ≤ 0.1 | 0.2 (≈ 0.443 µM) | ≤ 0.1 | ≤ 0.1 | 0.8 (≈ 1.77 µM) | 1.6 (≈ 3.54 µM) | 1.6 (≈ 3.54 µM) | 1.6 (≈ 3.54 µM) | 1.6 (≈ 3.54 µM) | 0.2 (≈ 0.443 µM)
6 | CSC(C)(C)[C@H](NC(=O)c1ccc(C#Cc2ccc(CNCc3ncccn3)s2)cc1)C(=O)NO [Compound 366] | ≤ 0.1 | 0.2 (≈ 0.392 µM) | 0.4 (≈ 0.785 µM) | 0.4 (≈ 0.785 µM) | 0.8 (≈ 1.57 µM) | 0.8 (≈ 1.57 µM) | 1.6 (≈ 3.14 µM) | 1.6 (≈ 3.14 µM) | 0.8 (≈ 1.57 µM) | 0.2 (≈ 0.392 µM)
7 | CCCNCc1ccc(C#Cc2ccc(C(=O)N[C@H](C(=O)NO)C(C)C)cc2)cc1 [Compound 206] | ≤ 0.1 | 0.2 (≈ 0.491 µM) | 0.4 (≈ 0.982 µM) | ≤ 0.1 | 3.1 (≈ 7.61 µM) | 3.1 (≈ 7.61 µM) | 6.3 (≈ 15.5 µM) | 6.3 (≈ 15.5 µM) | 3.1 (≈ 7.61 µM) | 0.8 (≈ 1.96 µM)
8 | CC(C)([C@H](NC(=O)c1ccc(C#Cc2ccc(CNCc3ccccc3)cc2)cc1)C(=O)NO)S(C)(=O)=O [C.259] | ≤ 0.1 | ≤ 0.1 | ≤ 0.1 | ≤ 0.1 | 0.8 (≈ 1.5 µM) | 0.4 (≈ 0.75 µM) | 0.8 (≈ 1.5 µM) | 0.8 (≈ 1.5 µM) | 0.4 (≈ 0.75 µM) | ≤ 0.1
9 | O=C(N[C@@H](CO)C(=O)NO)c1ccc(C#Cc2ccc(CN3CCCOCC3)cc2)cc1 [Compound 215] | ≤ 0.1 | ≤ 0.1 | ≤ 0.1 | ≤ 0.1 | 3.1 (≈ 7.09 µM) | 3.1 (≈ 7.09 µM) | 6.3 (≈ 14.4 µM) | 6.3 (≈ 14.4 µM) | 3.1 (≈ 7.09 µM) | 0.8 (≈ 1.83 µM)
10 | CC[C@H](C)[C@H](NC(=O)c1ccc(C#Cc2ccc(CN3CCCCC3)cc2)cc1)C(=O)NO [Compound 187] | ≤ 0.1 | 0.8 (≈ 1.79 µM) | 1.6 (≈ 3.57 µM) | 0.4 (≈ 0.894 µM) | 3.1 (≈ 6.93 µM) | 12.5 (≈ 27.9 µM) | 6.3 (≈ 14.1 µM) | 12.5 (≈ 27.9 µM) | 6.3 (≈ 14.1 µM) | 1.6 (≈ 3.57 µM)
11 | COCCNCc1ccc(C#Cc2ccc(C(=O)N[C@H](C(=O)NO)C(C)(C)S(C)(=O)=O)cc2)s1 [C.313] | ≤ 0.1 | ≤ 0.1 | ≤ 0.1 | 0.2 (≈ 0.394 µM) | 0.4 (≈ 0.788 µM) | 1.6 (≈ 3.15 µM) | 0.8 (≈ 1.58 µM) | 1.6 (≈ 3.15 µM) | 0.4 (≈ 0.788 µM) | ≤ 0.1
12 | C=CCNCc1ccc(C#Cc2ccc(C(=O)N[C@H](C(=O)NO)C(C)(C)S(C)(=O)=O)cc2)s1 [Compound 312] | ≤ 0.1 | ≤ 0.1 | ≤ 0.1 | 0.4 (≈ 0.817 µM) | 0.4 (≈ 0.817 µM) | 0.4 (≈ 0.817 µM) | 0.8 (≈ 1.63 µM) | 0.8 (≈ 1.63 µM) | 0.4 (≈ 0.817 µM) | ≤ 0.1
13 | O=C(N[C@@H](CO)C(=O)NO)c1ccc(C#Cc2ccc(CNC3CCCCC3)cc2)cc1 [Compound 149] | ≤ 0.1 | 1.6 (≈ 3.67 µM) | 1.6 (≈ 3.67 µM) | 0.8 (≈ 1.84 µM) | 12.5 (≈ 28.7 µM) | 25 (≈ 57.4 µM) | 25 (≈ 57.4 µM) | 25 (≈ 57.4 µM) | 25 (≈ 57.4 µM) | 3.1 (≈ 7.12 µM)

Now from value to molecule, other results behind:

Row | MIC PM 10775 [1] [µg/mL] | MIC PM 12080 [7] [µg/mL] | MIC PM 6391 [8] [µg/mL] | MIC PM 6267 [10] [µg/mL] | Compound | MIC MH 6357 [2] [µg/mL] | MIC MH 6374 [3] [µg/mL] | MIC MH 13093 [4] [µg/mL] | MIC MH 12587 [5] [µg/mL] | MIC MH 13065 [6] [µg/mL] | MIC MH 10720 [9] [µg/mL]
14 | ≤ 0.1 | 1.6 (≈ 3.8 µM) | 1.6 (≈ 3.8 µM) | 0.8 (≈ 1.9 µM) | O=C(N[C@@H](CO)C(=O)NO)c1ccc(C#Cc2ccc(CN3CCCCC3)cc2)cc1 [Compound 156] | 6.3 (≈ 14.9 µM) | 6.3 (≈ 14.9 µM) | 12.5 (≈ 29.7 µM) | 12.5 (≈ 29.7 µM) | 12.5 (≈ 29.7 µM) | 1.6 (≈ 3.8 µM)
15 | ≤ 0.1 | ≤ 0.1 | ≤ 0.1 | 0.8 (≈ 1.59 µM) | COc1ccc(CNCc2ccc(C#Cc3ccc(C(=O)N[C@H](C(=O)NO)C(C)(C)O)cc3)cn2)cc1 [Compound 328] | 0.8 (≈ 1.59 µM) | 0.8 (≈ 1.59 µM) | 0.8 (≈ 1.59 µM) | 1.6 (≈ 3.18 µM) | 0.8 (≈ 1.59 µM) | ≤ 0.1
16 | ≤ 0.1 | 0.2 (≈ 0.431 µM) | 0.4 (≈ 0.861 µM) | 0.4 (≈ 0.861 µM) | CC(C)(O)[C@H](NC(=O)c1ccc(C#Cc2ccc(CNCC(F)(F)F)nc2)cc1)C(=O)NO [Compound 333] | 0.4 (≈ 0.861 µM) | 0.8 (≈ 1.72 µM) | 1.6 (≈ 3.44 µM) | 1.6 (≈ 3.44 µM) | 0.8 (≈ 1.72 µM) | ≤ 0.1
17 | ≤ 0.1 | 0.4 (≈ 0.788 µM) | 1.6 (≈ 3.15 µM) | 1.6 (≈ 3.15 µM) | CSC(C)(C)C(NC(=O)c1ccc(C#Cc2ccc(CNCc3ccccc3)s2)cc1)C(=O)NO (stereo not shown) [Compound 304] | 0.8 (≈ 1.58 µM) | 1.6 (≈ 3.15 µM) | 3.1 (≈ 6.11 µM) | 1.6 (≈ 3.15 µM) | 1.6 (≈ 3.15 µM) | ≤ 0.1
18 | 0.4 (≈ 0.921 µM) | 0.4 (≈ 0.921 µM) | ≤ 0.1 | 3.1 (≈ 7.13 µM) | C=CCNCc1ccc(C#Cc2ccc(C(=O)N[C@H](C(=O)NO)C(C)=NOC)cc2)cc1 [Compound 379] | 0.8 (≈ 1.84 µM) | 1.6 (≈ 3.68 µM) | 1.6 (≈ 3.68 µM) | 0.4 (≈ 0.921 µM) | 1.6 (≈ 3.68 µM) | 0.8 (≈ 1.84 µM)
19 | 3.1 (≈ 7.15 µM) | 0.8 (≈ 1.85 µM) | 0.8 (≈ 1.85 µM) | 100 (≈ 231 µM) | CC(=O)C(NC(=O)c1ccc(C#Cc2ccc(CNC3CCCC3)cc2)cc1)C(=O)NO (stereo not shown) [Compound 405] | 25 (≈ 57.7 µM) | 50 (≈ 115 µM) | 25 (≈ 57.7 µM) | 12.5 (≈ 28.8 µM) | 0.8 (≈ 1.85 µM) | 6.3 (≈ 14.5 µM)
20 | ≤ 0.1 | ≤ 0.1 | ≤ 0.1 | 0.4 (≈ 0.846 µM) | CC(C)(O)[C@H](NC(=O)c1ccc(C#Cc2ccc(CNCc3ccccc3)nc2)cc1)C(=O)NO [Compound 327] | 0.8 (≈ 1.69 µM) | 0.8 (≈ 1.69 µM) | 0.8 (≈ 1.69 µM) | 1.6 (≈ 3.39 µM) | 0.4 (≈ 0.846 µM) | ≤ 0.1
21 | ≤ 0.1 | ≤ 0.1 | ≤ 0.1 | 0.4 (≈ 0.77 µM) | CC(C)([C@H](NC(=O)c1ccc(C#Cc2ccc(CN3CCOCC3)s2)cc1)C(=O)NO)S(C)(=O)=O [Compound 314] | 0.4 (≈ 0.77 µM) | 1.6 (≈ 3.08 µM) | 0.8 (≈ 1.54 µM) | 0.8 (≈ 1.54 µM) | 0.4 (≈ 0.77 µM) | ≤ 0.1
22 | ≤ 0.1 | 0.2 (≈ 0.444 µM) | 0.4 (≈ 0.888 µM) | ≤ 0.1 | C=CCNCc1ccc(C#Cc2ccc(C(=O)NC(C(=O)NO)C(C)(C)[N+](=O)[O-])cc2)cc1 (stereo not shown) [Compound 280] | 1.6 (≈ 3.55 µM) | 0.8 (≈ 1.78 µM) | 1.6 (≈ 3.55 µM) | 3.1 (≈ 6.88 µM) | 1.6 (≈ 3.55 µM) | ≤ 0.1
